Source: the NIST ThermoML archive (doi:10.1021/acs.jced.9b00237)

Assay: xn = mol fraction of the nth substance listed
Conditions: 100 kPa, Liquid; for viscosity: Concentric cylinders viscometry; for mass density: Vibrating tube method

C[N+](C)(C)CCO.[Cl-] [choline chloride] + Oc1ccccc1
Conditions	mass density, 293.15 K [kg/m3]	mass density, 303.15 K [kg/m3]	mass density, 313.15 K [kg/m3]	mass density, 323.15 K [kg/m3]	mass density, 333.15 K [kg/m3]	viscosity, 293.15 K [mPa·s]	viscosity, 303.15 K [mPa·s]	viscosity, 313.15 K [mPa·s]	viscosity, 323.15 K [mPa·s]	viscosity, 333.15 K [mPa·s]
x1 = 0.2	1093	1087	1080	1073	1067	39	24.67	16.69	11.83	8.825
x1 = 0.25	1096	1089	1083	1077	1071	58.16	35.76	23.53	16.42	12.02
